Source: EP4813990A1, “COMPOUND FOR TREATING CANCER” (INNOLAKE BIOPHARMA (HANGZHOU) CO., LTD., priority 2023, dated 2025)
Where two headings read alike, the source gives them in different places.

Key:
CYP1A2 = target: T1, CYP1A2 (Homo sapiens, UniProt P05177); assay: Human liver microsome CYP inhibition (direct and time-dependent); type: in vitro ADME
T1 construct: In vitro human liver microsome tests; from tissue; host or cells: human liver microsomes
Excerpt: (§1) The non-dilution method was used to determine the time-dependent inhibitory effect of ILB-2109 on human liver microsomal cytochrome P450 isoenzymes (CYP1A2, CYP2B6, CYP2C8, CYP2C9, CYP2C19, CYP2D6 and CYP3A4). Generally, an IC50 shift multiple ≥1.5 was taken as the judgment standard for time-dependent inhibitors.

CYP2B6 = target: T2, CYP2B6 (Homo sapiens, UniProt P20813); assay: as above; type: in vitro ADME
T2 construct: In vitro human liver microsome tests; from tissue; host or cells: human liver microsomes
Excerpt: as §1

CYP2C8 = target: T3, CYP2C8 (Homo sapiens, UniProt P10632); assay: as above; type: in vitro ADME
T3 construct: In vitro human liver microsome tests; from tissue; host or cells: human liver microsomes
Excerpt: as §1

CYP2D6 = target: T4, CYP2D6 (Homo sapiens, UniProt P10635); assay: as above; type: in vitro ADME
T4 construct: In vitro human liver microsome tests; from tissue; host or cells: human liver microsomes
Excerpt: as §1

CYP3A4 = target: T5, CYP3A4 (Homo sapiens, UniProt P08684); assay: as above; type: in vitro ADME; settings: for IC50: human liver microsomes
T5 construct: In vitro human liver microsome tests; from tissue; host or cells: human liver microsomes
Excerpt: as §1

CYP2C9 = target: T6, CYP2C9 (Homo sapiens, UniProt P11712); assay: as above; type: in vitro ADME
T6 construct: In vitro human liver microsome tests; from tissue; host or cells: human liver microsomes
Excerpt: as §1

CYP2C19 = target: T7, CYP2C19 (Homo sapiens, UniProt P33261); assay: as above; type: in vitro ADME
T7 construct: In vitro human liver microsome tests; from tissue; host or cells: human liver microsomes
Excerpt: as §1

[1] = Liver microsome metabolism; type: in vitro ADME
Excerpt: The main biotransformation pathways of ILB-2109 in in vitro liver microsomes and hepatocytes include oxidation, dehydrogenation and glucuronidation (hepatocyte biotransformation pathway), and no human-specific metabolites were detected.

[2] = test system: histidine-deficient Salmonella typhimurium strains (TA97a, TA98, TA100, TA102 and TA1535); assay: AMES reverse mutation test; type: cell-based; settings: 128 ~ 5000 µg/plate, with or without S9 metabolic activation system
Excerpt: This test detected the ability of ILB-2109 to induce reverse mutation of histidine-deficient Salmonella typhimurium strains (TA97a, TA98, TA100, TA102 and TA1535) with and without exogenous metabolic activation system. […] Therefore, under the research conditions, the Ames test result was negative.

[3] = Single-dose toxicity study in rats; settings: Sprague-Dawley, rat, in vivo, po; SD rats, single intragastric administration, observed for 14 days; read-out: maximum tolerated dose (MTD)
Experimental: (§2) In accordance with the relevant requirements of the Good Laboratory Practice for Non-clinical Drug Studies issued by the National Medical Products Administration of the People's Republic of China, and following the test protocol and revisions, the safety pharmacology test, single-dose toxicity, genetic toxicity, etc. of ILB-2109 were explored.
SD rats were given single intragastric administration of ILB-2109 and observed for 14 days. The single doses were 0 (vehicle), 500, 1000 and 2000 mg/kg ILB-2109. […] No abnormalities were found in body weight, food consumption, clinical examination and gross anatomy. Under the test conditions, the maximum tolerated dose (MTD) of ILB-2109 in rats was 2000 mg/kg.

A2aR [4] = target: T8, A2aR (Homo sapiens, UniProt P29274); assay: Antagonism of A2aR activity at the cellular level; type: cell-based
Excerpt: (§3) Meanwhile, ILB-2109 had high selectivity for A2aR (compared with A1, A2b and A3 receptors, the selectivity was 18.9 times, 40.7 times and 3424.7 times respectively).

[5] = Single-dose toxicity study in cynomolgus monkeys; settings: cynomolgus monkey, in vivo, po, single intragastric administration within 24 h, observed 14 days, read-out: maximum tolerated dose (MTD)
Experimental: as §2
Cynomolgus monkeys were given single intragastric administration of 0 (vehicle), 250, 500 and 1000 mg/kg ILB-2109 and observed continuously for 14 days after single administration. […] Within 30 min ~ 4 h after administration on the day of administration, mild vomiting (a small amount of food-like vomit) occurred in medium and high-dose groups. No abnormalities were found in body weight, food consumption, body temperature, respiration, electrocardiogram, blood routine, ophthalmic examination, clinical examination, bone marrow and gross anatomy. Under the test conditions, the maximum tolerated dose (MTD) of cynomolgus monkeys given single intragastric administration of ILB-2109 within 24 h was 1000 mg/kg. The test substance had effects on digestive system (gastrointestinal function, liver function).

A2aR [6] = target: T8, A2aR; assay: Inhibition of binding of A2aR to its isotopically labeled ligand
Excerpt: as §3

[7] = 4-week repeated-dose toxicity test in rats; design: species or system SD rats; settings: Sprague-Dawley, rat, in vivo
Experimental: as §2
SD rats were given continuous intragastric administration of ILB-2109 at doses of 0 (vehicle), 60, 200 and 600 mg/kg for 28 consecutive days. […] WBC and #LYMPH increased or tended to increase in medium and high-dose groups; GLU decreased or tended to decrease in medium and high-dose groups; CREA and UREA increased or tended to increase in female high-dose group; GLOB increased and A/G decreased in female animals of each dose group. […] All the above changes completely recovered during the recovery period. […] ILB-2109 may have toxic effects on digestive system (liver function), blood system (granulocyte series) and urinary system (renal function) of SD rats, which can be reversed at the end of the recovery period.

A1 receptor = A1 receptor (Homo sapiens, UniProt P30542); assay: Adenosine receptor selectivity, A2aR compared with A1; type: binding
Excerpt: as §3

Plasma protein binding = type: in vitro ADME; settings: human plasma
[8] = non-dilution method, IC50 shift multiple ≥1.5 as judgment standard

T5 sequence (P08684 2-503): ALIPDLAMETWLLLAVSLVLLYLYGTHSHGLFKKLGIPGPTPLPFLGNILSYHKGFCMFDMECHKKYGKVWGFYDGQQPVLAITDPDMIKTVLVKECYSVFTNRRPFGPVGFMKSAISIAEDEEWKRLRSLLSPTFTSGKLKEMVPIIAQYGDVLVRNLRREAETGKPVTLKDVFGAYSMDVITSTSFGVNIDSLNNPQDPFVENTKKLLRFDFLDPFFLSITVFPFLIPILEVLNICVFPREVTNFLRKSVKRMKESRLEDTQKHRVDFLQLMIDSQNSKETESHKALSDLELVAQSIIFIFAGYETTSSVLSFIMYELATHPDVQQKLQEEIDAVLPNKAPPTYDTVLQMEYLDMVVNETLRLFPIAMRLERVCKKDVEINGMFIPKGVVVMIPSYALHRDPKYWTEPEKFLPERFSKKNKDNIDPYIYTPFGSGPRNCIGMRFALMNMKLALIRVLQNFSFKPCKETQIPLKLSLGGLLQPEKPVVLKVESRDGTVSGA
T8 sequence (P29274 whole entry): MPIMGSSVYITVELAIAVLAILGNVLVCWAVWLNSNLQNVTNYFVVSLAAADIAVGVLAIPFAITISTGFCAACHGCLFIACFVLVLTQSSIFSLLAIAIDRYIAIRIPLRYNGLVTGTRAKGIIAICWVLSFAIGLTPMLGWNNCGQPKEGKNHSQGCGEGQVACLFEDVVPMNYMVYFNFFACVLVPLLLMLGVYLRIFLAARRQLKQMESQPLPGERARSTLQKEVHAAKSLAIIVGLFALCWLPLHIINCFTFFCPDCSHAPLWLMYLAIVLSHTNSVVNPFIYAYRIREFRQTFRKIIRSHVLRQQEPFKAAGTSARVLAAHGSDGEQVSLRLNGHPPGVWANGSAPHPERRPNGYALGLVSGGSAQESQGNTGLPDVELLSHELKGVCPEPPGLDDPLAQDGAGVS
T4 sequence (P10635 whole entry): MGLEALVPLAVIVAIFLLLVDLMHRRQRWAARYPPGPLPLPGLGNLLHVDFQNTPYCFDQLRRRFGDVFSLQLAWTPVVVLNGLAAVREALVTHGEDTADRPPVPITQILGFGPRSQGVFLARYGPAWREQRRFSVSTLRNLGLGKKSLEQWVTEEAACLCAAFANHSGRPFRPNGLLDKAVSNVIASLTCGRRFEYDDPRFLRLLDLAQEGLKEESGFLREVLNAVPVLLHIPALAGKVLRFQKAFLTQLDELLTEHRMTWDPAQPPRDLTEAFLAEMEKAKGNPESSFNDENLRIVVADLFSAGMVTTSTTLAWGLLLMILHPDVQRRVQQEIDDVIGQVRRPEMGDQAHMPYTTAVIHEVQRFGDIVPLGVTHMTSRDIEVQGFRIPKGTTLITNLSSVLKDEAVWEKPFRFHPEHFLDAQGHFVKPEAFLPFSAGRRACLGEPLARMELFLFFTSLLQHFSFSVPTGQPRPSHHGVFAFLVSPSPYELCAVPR
T7 sequence (P33261 whole entry): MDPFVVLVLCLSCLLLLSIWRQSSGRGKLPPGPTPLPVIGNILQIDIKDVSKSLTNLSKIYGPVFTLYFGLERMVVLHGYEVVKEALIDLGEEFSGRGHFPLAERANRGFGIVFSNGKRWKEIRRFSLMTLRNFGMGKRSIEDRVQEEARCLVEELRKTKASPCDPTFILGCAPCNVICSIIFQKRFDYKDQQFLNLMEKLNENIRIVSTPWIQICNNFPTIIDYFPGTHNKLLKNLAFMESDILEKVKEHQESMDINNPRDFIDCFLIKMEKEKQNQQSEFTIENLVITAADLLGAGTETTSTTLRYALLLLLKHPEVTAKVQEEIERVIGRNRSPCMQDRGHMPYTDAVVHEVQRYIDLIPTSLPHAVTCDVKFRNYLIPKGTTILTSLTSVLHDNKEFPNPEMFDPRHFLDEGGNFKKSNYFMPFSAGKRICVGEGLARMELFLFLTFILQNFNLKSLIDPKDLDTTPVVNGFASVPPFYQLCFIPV
T1 sequence (P05177 whole entry): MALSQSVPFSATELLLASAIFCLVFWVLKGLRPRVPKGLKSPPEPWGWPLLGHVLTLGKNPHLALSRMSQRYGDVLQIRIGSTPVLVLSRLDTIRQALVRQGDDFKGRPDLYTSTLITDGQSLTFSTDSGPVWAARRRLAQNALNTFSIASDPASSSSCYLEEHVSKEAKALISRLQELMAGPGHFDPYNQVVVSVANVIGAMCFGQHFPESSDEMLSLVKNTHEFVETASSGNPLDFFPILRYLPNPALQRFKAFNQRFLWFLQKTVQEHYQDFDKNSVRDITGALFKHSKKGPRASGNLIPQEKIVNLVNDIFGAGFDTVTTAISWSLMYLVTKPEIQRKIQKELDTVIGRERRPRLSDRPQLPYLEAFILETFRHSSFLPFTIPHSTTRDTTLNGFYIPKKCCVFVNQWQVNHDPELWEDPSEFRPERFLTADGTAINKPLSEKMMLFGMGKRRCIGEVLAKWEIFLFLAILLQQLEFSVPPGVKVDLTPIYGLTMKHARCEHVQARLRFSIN
T2 sequence (P20813 whole entry): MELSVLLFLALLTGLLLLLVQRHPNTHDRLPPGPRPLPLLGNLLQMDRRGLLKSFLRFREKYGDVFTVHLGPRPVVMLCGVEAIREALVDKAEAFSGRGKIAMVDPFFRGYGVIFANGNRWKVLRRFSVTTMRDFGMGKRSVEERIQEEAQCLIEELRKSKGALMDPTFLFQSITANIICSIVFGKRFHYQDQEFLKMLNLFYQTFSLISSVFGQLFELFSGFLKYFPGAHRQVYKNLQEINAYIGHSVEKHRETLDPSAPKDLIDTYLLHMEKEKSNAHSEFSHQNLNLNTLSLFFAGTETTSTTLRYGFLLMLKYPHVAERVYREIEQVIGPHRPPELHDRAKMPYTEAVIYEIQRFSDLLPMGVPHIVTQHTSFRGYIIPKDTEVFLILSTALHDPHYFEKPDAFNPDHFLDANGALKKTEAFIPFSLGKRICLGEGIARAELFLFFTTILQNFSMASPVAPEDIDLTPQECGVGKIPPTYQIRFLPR
T6 sequence (P11712 whole entry): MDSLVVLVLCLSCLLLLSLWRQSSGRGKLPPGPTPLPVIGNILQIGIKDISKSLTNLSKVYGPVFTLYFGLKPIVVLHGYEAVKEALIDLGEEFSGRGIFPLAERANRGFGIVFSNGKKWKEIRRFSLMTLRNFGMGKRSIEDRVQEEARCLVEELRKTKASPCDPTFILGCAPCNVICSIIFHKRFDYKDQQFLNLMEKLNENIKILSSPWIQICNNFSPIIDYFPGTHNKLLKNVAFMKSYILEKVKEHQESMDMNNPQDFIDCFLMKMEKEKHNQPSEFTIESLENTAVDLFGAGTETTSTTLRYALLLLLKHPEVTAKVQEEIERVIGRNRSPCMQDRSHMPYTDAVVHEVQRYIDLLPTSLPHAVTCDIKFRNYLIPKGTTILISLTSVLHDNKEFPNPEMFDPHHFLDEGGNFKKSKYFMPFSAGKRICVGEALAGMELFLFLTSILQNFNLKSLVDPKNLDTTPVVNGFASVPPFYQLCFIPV
T3 sequence (P10632 whole entry): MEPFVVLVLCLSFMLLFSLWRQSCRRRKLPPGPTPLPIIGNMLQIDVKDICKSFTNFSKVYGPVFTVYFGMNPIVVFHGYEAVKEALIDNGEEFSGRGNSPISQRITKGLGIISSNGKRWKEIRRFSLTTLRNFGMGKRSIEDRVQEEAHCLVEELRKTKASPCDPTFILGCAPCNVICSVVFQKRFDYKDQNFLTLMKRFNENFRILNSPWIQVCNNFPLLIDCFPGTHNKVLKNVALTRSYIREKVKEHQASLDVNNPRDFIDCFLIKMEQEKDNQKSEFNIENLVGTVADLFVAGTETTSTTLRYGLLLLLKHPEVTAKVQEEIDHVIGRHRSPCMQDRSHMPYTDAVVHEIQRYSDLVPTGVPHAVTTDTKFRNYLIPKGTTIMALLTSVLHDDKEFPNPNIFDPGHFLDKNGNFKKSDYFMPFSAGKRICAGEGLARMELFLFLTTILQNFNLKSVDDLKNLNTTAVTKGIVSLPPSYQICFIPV
Sequence of A1 receptor (P30542 whole entry): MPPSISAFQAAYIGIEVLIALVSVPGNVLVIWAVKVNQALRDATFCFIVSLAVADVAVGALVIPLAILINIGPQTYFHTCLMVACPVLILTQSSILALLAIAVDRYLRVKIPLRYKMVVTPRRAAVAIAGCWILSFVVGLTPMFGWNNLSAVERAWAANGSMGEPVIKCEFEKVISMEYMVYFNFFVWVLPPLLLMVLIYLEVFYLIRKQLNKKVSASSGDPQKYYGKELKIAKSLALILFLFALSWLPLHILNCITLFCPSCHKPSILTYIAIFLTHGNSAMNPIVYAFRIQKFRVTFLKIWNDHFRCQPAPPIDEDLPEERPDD

SMILES: Cc1cc(-c2c(-c3ccccc3)nc(N)n3nc(CO)nc23)cc(C(F)(F)F)n1 [ILB-2109]
- IC50 (CYP1A2; human liver microsomes): > 100 µM
- time-dependent inhibitory effect (CYP1A2; [8]): no time-dependent inhibitory effect
- IC50 (CYP2B6; human liver microsomes): > 100 µM
- time-dependent inhibitory effect (CYP2B6; [8]): no time-dependent inhibitory effect
- IC50 (CYP2C8; human liver microsomes): 33.9 µM
- time-dependent inhibitory effect (CYP2C8; [8]): no time-dependent inhibitory effect
- IC50 (CYP2D6; human liver microsomes): > 100 µM
- time-dependent inhibitory effect (CYP2D6; [8]): no time-dependent inhibitory effect
- IC50 (CYP3A4; midazolam as substrate): > 100 µM
- IC50 (CYP3A4; testosterone as substrate): > 100 µM
- time-dependent inhibitory effect (CYP3A4; [8]): no time-dependent inhibitory effect
- IC50 (CYP2C9; human liver microsomes): 57.2 µM
- time-dependent inhibitory effect (CYP2C9; [8]): no time-dependent inhibitory effect
- IC50 (CYP2C19; human liver microsomes): 91.6 µM
- time-dependent inhibitory effect (CYP2C19; [8]): no time-dependent inhibitory effect
- metabolism rate ([1]; Beagle dogs liver microsomes): slowly metabolized or non-metabolized
- metabolism rate ([1]; CD-1 mice liver microsomes): moderate rate
- metabolism rate ([1]; SD rats liver microsomes): moderate rate
- metabolism rate ([1]; cynomolgus monkeys liver microsomes): slowly metabolized or non-metabolized
- metabolism rate ([1]; human liver microsomes): slowly metabolized or non-metabolized
- Ames test result [2]: negative
- MTD at 14 days [3]: 2000 mg/kg
- IC50 (A2aR [4]; antagonism of A2aR activity): 0.00043 µM
- IC50 (A2aR [4]; tumor physiological equivalent conditions (NECA 5 µM)): 0.00108 µM
- MTD at 14 days [5]: 1000 mg/kg
- IC50 (A2aR [6]): 0.00292 µM
- AUC(0-t) ([7]; oral, female SD rats, 600 mg/kg (MTD), 4-week study, read-out: AUC0-24h): 725 µg·h/mL
- Cmax ([7]; oral, female SD rats, 600 mg/kg (MTD), 4-week study, read-out: Cmax): 69.4 µg/mL
- AUC(0-t) ([7]; oral, male SD rats, 600 mg/kg (MTD), 4-week study, read-out: AUC0-24h): 481 µg·h/mL
- Cmax ([7]; oral, male SD rats, 600 mg/kg (MTD), 4-week study, read-out: Cmax): 36.3 µg/mL
- NOAEL at 28 days ([7]; both sexes, po): 60 mg/kg
- MTD at 28 days ([7]; both sexes, po, SD rats, intragastric, 28 consecutive days): 600 mg/kg
- AUC(0-t) ([7]; female, 60 mg/kg): 296 µg·h/mL
- Cmax ([7]; female, 60 mg/kg): 22.2 µg/mL
- AUC(0-t) ([7]; male, 60 mg/kg): 114 µg·h/mL
- Cmax ([7]; male, 60 mg/kg): 15.9 µg/mL
- selectivity for A2aR compared with A1 receptor (A1 receptor): 18.9 times
- binding rate in plasma (Plasma protein binding): 95.1-95.8%
